Measured values taken from patent publication US9611289B2, “Farnesoid X receptor modulators” (Intercept Pharmaceuticals, Inc., priority 2013, dated 2017).
Values after ≈ are worked out from the molar mass of the structure shown.

Experiments:
[1] = Critical micellar concentration; format: physicochemical; settings: […] NaCl water solution
[2] = Surface tension at CMC; format: physicochemical; settings: […] NaCl water solution
[3] = 1-octanol-water partition coefficient (LogPA-); settings: ionized species
[4] = system: HepG2 cells; settings: HepG2 cells
[5] = Water solubility
[6] = biological target: PR (Homo sapiens, UniProt P06401); assay: AlphaScreen nuclear receptor activation; format: biochemical
PR, sequence (P06401 whole entry): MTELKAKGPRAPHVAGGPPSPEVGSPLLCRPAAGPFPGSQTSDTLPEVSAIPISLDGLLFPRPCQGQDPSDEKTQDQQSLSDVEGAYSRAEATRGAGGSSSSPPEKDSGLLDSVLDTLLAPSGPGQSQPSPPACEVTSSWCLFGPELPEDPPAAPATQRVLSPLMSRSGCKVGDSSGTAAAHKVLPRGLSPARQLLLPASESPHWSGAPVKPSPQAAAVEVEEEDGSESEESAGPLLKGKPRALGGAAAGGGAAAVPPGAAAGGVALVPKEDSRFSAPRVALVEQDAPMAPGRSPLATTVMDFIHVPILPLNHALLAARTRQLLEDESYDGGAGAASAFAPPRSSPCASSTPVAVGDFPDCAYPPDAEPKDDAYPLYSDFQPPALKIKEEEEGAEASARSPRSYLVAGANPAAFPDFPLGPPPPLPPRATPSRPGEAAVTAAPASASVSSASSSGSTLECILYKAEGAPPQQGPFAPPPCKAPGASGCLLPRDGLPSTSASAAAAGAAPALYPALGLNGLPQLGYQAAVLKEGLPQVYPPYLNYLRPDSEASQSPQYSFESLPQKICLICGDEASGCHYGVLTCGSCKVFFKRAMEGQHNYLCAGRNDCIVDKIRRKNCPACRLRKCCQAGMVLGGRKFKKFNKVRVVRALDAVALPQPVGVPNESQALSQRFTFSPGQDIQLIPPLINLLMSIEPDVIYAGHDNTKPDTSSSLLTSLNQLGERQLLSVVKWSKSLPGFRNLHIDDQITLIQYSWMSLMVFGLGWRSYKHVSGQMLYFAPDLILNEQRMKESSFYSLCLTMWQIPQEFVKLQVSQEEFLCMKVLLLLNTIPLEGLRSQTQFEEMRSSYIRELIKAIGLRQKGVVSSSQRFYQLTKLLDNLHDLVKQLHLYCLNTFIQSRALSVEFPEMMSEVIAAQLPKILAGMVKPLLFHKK

[7] = system: HepG2 cells; assay: cells; settings: Homo sapiens, HepG2, read-out: Membrane integrity EC50 (μM) (LDH measure)

Compound | CMC(b) (mM) Critical Micellar Concentration [1] | STCMC(c) (Dyne/cm) Surface Tension at CMC [2] | LogPA−(d) 1-octanol-water partition coefficient [3] | solubility [5] | other results
CC[C@H]1[C@@H](O)C2C3CCC(C(C)CC(C)C(=O)O)[C@@]3(C)[C@@H](O)CC2[C@@]2(C)CC[C@@H](O)C[C@@H]12 (stereo in doubt) [Compound C, 6α-ethyl-23(S)-methyl-3α,7α,12α trihydroxy-5β-cholan-24-oic acid] | 2 mM | 50.1 Dyne/cm | 1.4 | – | –
C[C@H](CCC(=O)O)[C@H]1CC[C@H]2[C@@H]3[C@H](O)C[C@@H]4C[C@H](O)CC[C@]4(C)[C@H]3CC[C@]12C [CDCA, chenodeoxycholic acid] | 3.2 mM | 45.5 Dyne/cm | 2.2 | – | –
CC[C@H]1[C@@H](O)C2C3CC[C@H]([C@H](C)CCC(=O)O)[C@@]3(C)C[C@@H](O)C2[C@@]2(C)CC[C@@H](O)C[C@@H]12 (stereo partly drawn) [Compound 101] | – | – | – | – | Membrane integrity EC50 (μM) (LDH measure) [4]: No toxicity; living cells ([4]; LDH measure): (100% living cells)
CC[C@H]1[C@@H](O)C2C3CC[C@H]([C@H](C)C[C@H](C)C(=O)O)[C@@]3(C)CCC2[C@@]2(C)CC[C@@H](O)C[C@@H]12 (stereo partly drawn) [Compound D, 6α-ethyl-23(R)-methyl chenodeoxycholic acid] | – | – | 2.9 | 15 µM (≈ 6.52 µg/mL) | –
CC[C@H]1[C@@H](O)C2C3C[C@H](O)[C@H]([C@H](C)CCC(=O)O)[C@@]3(C)CCC2[C@@]2(C)CC[C@@H](O)C[C@@H]12 (stereo partly drawn) [Compound E] | 5.9 mM | 52.4 Dyne/cm | 1.6 | 120 µM (≈ 52.4 µg/mL) | –
C[C@]12C[C@H](O)[C@H]3[C@@H](CCC4=CC(=O)CC[C@@]43C)[C@@H]1CC[C@@H]2C(=O)CO [Corticosterone] | – | – | – | – | EC50 [6]: 0.05 µM
C[C@H](CCC(=O)O)[C@H]1CC[C@H]2[C@@H]3CC[C@@H]4C[C@H](O)CC[C@]4(C)[C@H]3CC[C@]12C [LCA, lithocholic acid] | – | – | – | – | EC50 [7]: 75 ± 5 µM
C[C@H](CCC(=O)NCCS(=O)(=O)O)[C@H]1CC[C@H]2[C@@H]3[C@H](O)C[C@@H]4C[C@H](O)CC[C@]4(C)[C@H]3CC[C@]12C [TCDCA, taurochenodeoxycholic acid] | 3.0 mM | – | 0.9 | – | –
C[C@H](CCC(=O)NCCS(=O)(=O)O)[C@H]1CC[C@H]2[C@@H]3[C@@H](O)C[C@@H]4C[C@H](O)CC[C@]4(C)[C@H]3CC[C@]12C [TUDCA, tauroursodeoxycholic acid] | 2.2 mM | – | 1.1 | – | –
C[C@H](CCC(=O)O)[C@H]1CC[C@H]2[C@@H]3[C@@H](O)C[C@@H]4C[C@H](O)CC[C@]4(C)[C@H]3CC[C@]12C [UDCA, ursodeoxycholic acid] | 6 to 10 mM | 50.5 Dyne/cm | 2.2 | 7 to 7.5 µM (≈ 2.75 to 2.94 µg/mL) | –
